From PMC8232621, “Antimicrobial Activity of a Library of Thioxanthones and Their Potential as Efflux Pump Inhibitors” (Pharmaceuticals, 2021)

Assays:
P-gp = test system: P-gp; set-up: method as in PMID 22044878; conditions: cited from earlier work
E. coli SA/2 = experiment: Synergy with cefotaxime (antibiotic MIC in presence of compound); assay type: cell-based
Text: (§1) The referred library of thioxanthones was initially tested for their antimicrobial activity against six bacterial strains: the Gram-negative Escherichia coli ATCC 25922, Pseudomonas aeruginosa ATCC 27853 and Salmonella enterica serovar Typhimurium SL1344 (SE03), with the acrA gene deleted, and the Gram-positive Staphylococcus aureus ATCC 29213, Enterococcus faecalis ATCC 29212 and the methicillin and ofloxacin-resistant clinical isolate S. aureus 272123. For the synergy assay, two clinically relevant isolates were used: the extended-spectrum β-lactamase (ESBL)-producing E. coli SA/2 [23] and the vancomycin-resistant E. faecalis (VRE) B3/101 [23]. The antibiotics used were cefotaxime (CTX) and vancomycin (VAN), respectively.
The combined effect of the compounds and clinically relevant antimicrobial drugs was evaluated by determining the antibiotic’s MIC in the presence of each compound. […] The antibiotic tested was serially diluted, whereas the concentration of each compound was kept fixed. […]

P-glycoprotein (P-gp) = experiment: Flow cytometry analysis of P-glycoprotein expression in Caco-2 cells (UIC2-PE antibody); assay type: cell-based, human; conditions: 20 µM, 24 h
Procedure: However, the ability of compounds 9–17 to interfere with the fluorescence of the UIC2-PE antibody was assessed first. For this purpose, Caco-2 cells were incubated for 24 h, in the presence or absence of thioxanthone derivatives (20 μM), and subsequently analysed, by flow cytometry, as described for the P-gp expression assay. A remarkable increase in the intracellular fluorescence of cells exposed to compounds 10–13 and 15–17 was observed, making it impossible to assess the effect of these thioxanthone derivatives on P-gp expression. In fact, compounds 15–17 had previously been reported as fluorescent compounds [15] and this characteristic limited some of the studies reported herein. […] Briefly, Caco-2 cells were seeded in 24-well plates at a density of 60,000 cells/cm^2 and exposed, three days after seeding, to a non-cytotoxic concentration of the tested compounds (20 µM). […] The cells were then washed twice with HBSS (+/+), centrifuged (300 g for 5 min, at 4 °C) and kept on ice until analysis. […] The parameter used for comparison was the mean fluorescence intensity (MFI), calculated as a percentage of control cells (0 μM). The cells autofluorescence (unlabelled cells with or without exposure to the tested compounds) was also evaluated to eliminate its potential contribution to the analysed fluorescence signals. […]

E. faecalis B3/101 = experiment: Synergy with vancomycin (antibiotic MIC in presence of compound); assay type: cell-based, Enterococcus faecalis
Text: as §1
The combined effect of the compounds and clinically relevant antimicrobial drugs was evaluated by determining the antibiotic’s MIC in the presence of each compound. […] The antibiotic tested was serially diluted, whereas the concentration of each compound was kept fixed. In the case of compound 12, the concentration used was 8 µg/mL. For all other compounds, the concentration used was 64 µg/mL. Antibiotic MICs were determined as described above.

Caco-2 cells = experiment: Cytotoxicity in Caco-2 cells, sulforhodamine B (SRB) binding assay; assay type: cell-based, human; conditions: 24 h after exposure
Procedure: Caco-2 cells were routinely cultured in 75 cm^2 flasks using DMEM with 4.5 g/L glucose supplemented with 10% FBS, 1% NEAA and 1% antibiotic. Cells were maintained at 37 °C, in a 5% CO2 and 95% air atmosphere, and the cell culture medium was changed every 2−3 days. Cultures were passaged weekly by trypsinization (0.25% trypsin/1 mM EDTA). In all experiments, the cells were seeded at a density of 60,000 cells/cm^2 and used three days after seeding, when confluence was reached. The cells used in all experiments were taken between the 55th and 64th passages.
The compounds’ (0−20 μM) cytotoxicity was evaluated by the neutral red (NR) uptake and Sulforhodamine B (SRB) binding assays, 24 h after exposure. Caco-2 cells were seeded onto 96-well plates at a density of 60,000 cells/cm^2 and exposed, after reaching confluence (three days after seeding), to the compounds (0–20 μM), in a fresh cell culture medium. Triton™ X-100 (0.1%) was used as a positive control.
The SRB binding assay is based on the pH-dependent binding of SRB to basic amino acids of cellular proteins under mild acidic conditions. […] The bounded SRB was then extracted with a Tris base solution (10 mM, pH 10.5) and the absorbance was measured, at 540 nm, in a multi-well plate reader (PowerWaveX BioTek Instruments, VT, USA). […]

For `CCCOc1ccc(NCCN(CC)CC)c2c(=O)c3ccccc3sc12` [Compound 2], the “type of P-gp inhibition” value (P-gp) is given as “competitive inhibitor”.

In the case of `CCCOc1ccc(Nc2nc(C)cc(C)n2)c2c(=O)c3ccccc3sc12` [Compound 8, 1-[(4,6-Dimethylpyrimidin-2-yl)amino]-4-propoxy-9H-thioxanthen-9-one], the “decrease in the MIC of CTX” value (E. coli SA/2) is reported as 4 fold.

In the case of `CCCOc1ccc(N2CCNC(=O)C2)c2c(=O)c3ccccc3sc12` [Compound 9, 4-(9-Oxo-4-propoxy-9H-thioxanthen-1-yl)piperazin-2-one], the “P-gp expression levels (control cells 100%)” value (P-glycoprotein (P-gp)) is reported as “no significant differences” and the “decrease of the MIC of VAN” value (E. faecalis B3/101) is reported as 16 fold.

For `CCCOc1ccc(NCCO)c2c(=O)c3ccccc3sc12` [Compound 10, 1-[(2-Hydroxyethyl)amino]-4-propoxy-9H-thioxanthen-9-one], the “decrease in the MIC of CTX” value (E. coli SA/2) was 4 fold.

For `CCCOc1ccc(NS(=O)(=O)c2ccc(C(=O)O)cc2)c2c(=O)c3ccccc3sc12` [Compound 12, 4-[N-(9-Oxo-4-propoxy-9H-thioxanthen-1-yl)sulfamoyl]benzoic acid], the “decrease in the MIC of CTX” value (E. coli SA/2) was 16 fold.

For `CCCOc1ccc(Br)c2c(=O)c3ccccc3sc12` [Compound 14, 1-Bromo-4-propoxy-9H-thioxanthen-9-one], the “P-gp expression levels (control cells 100%)” value (P-glycoprotein (P-gp)) was 83%.

In the case of `CCCOc1ccc2nc(NCc3ccccc3Cl)nc3c2c1Sc1ccccc1-3` [Compound 17], the “SRB binding vs control cells” value (Caco-2 cells; 10 µM) is reported as “no significant differences” and the “SRB binding (relative to control cells)” value (Caco-2 cells; 20 µM) is reported as 105.8%.

With `CCCOc1ccc2c3c(n/c(=N\c4ccccc4C)n2-c2ccccc2C)-c2ccccc2Sc13` [Compound 18] the “decrease in the MIC of CTX” value (E. coli SA/2) was 4 fold.
